Reference: ChEMBL document CHEMBL1140502, “Synthesis of some tropane derivatives of anticipated activity on the reuptake of norepinephrine and/or serotonin” (2007)

Columns and labels:
Type in all cases: functional
[1] = tested on: Mus musculus; assay: Inhibition of NET-mediated norepinephrine-reuptake assessed as yohimbine induced mortality in mouse at 6.47 mM/kg, ip after 24 hrs; parameters: scale not given: the % may be the effect or the level left
[2] = tested on: Mus musculus; assay: Inhibition of NET-mediated norepinephrine-reuptake assessed as yohimbine induced mortality in intraperitoneally dosed mouse after 24 hrs; settings: ip
[3] = species on record: Mus musculus; assay: Selectivity ratio of ED50 for 5-HT reuptake in mouse to ED50 for norepinephrine reuptake in mouse
[4] = tested on: Mus musculus; assay: Inhibition of NET-mediated norepinephrine-reuptake assessed as yohimbine induced mortality in mouse at 12.94 mM/kg, ip after 24 hrs; parameters: scale not given: the % may be the effect or the level left
[5] = tested on: Mus musculus; assay: Inhibition of SERT-mediated serotonin-reuptake assessed as 5-hydroxytryptophan induced intraperitoneally dosed mouse head twitch after 20 mins; settings: ip
[6] = tested on: Mus musculus; assay: Inhibition of SERT-mediated serotonin-reuptake assessed as 5-hydroxytryptophan induced mouse head twitch at 6.47 mM/kg, ip after 20 mins; parameters: scale not given: the % may be the effect or the level left
[7] = tested on: Mus musculus; assay: Inhibition of NET-mediated norepinephrine-reuptake assessed as yohimbine induced mortality in mouse at 19.42 mM/kg, ip after 24 hrs; parameters: scale not given: the % may be the effect or the level left
[8] = tested on: Mus musculus; assay: Inhibition of NET-mediated norepinephrine-reuptake assessed as yohimbine induced mortality in mouse at 25.89 mM/kg, ip after 24 hrs; parameters: scale not given: the % may be the effect or the level left
[9] = tested on: Mus musculus; assay: Inhibition of SERT-mediated serotonin-reuptake assessed as 5-hydroxytryptophan induced mouse head twitch at 3.24 mM/kg, ip after 20 mins; parameters: scale not given: the % may be the effect or the level left
[10] = tested on: Mus musculus; assay: Inhibition of SERT-mediated serotonin-reuptake assessed as 5-hydroxytryptophan induced mouse head twitch at 12.94 mM/kg, ip after 20 mins; parameters: scale not given: the % may be the effect or the level left
[11] = tested on: Mus musculus; assay: Inhibition of NET-mediated norepinephrine-reuptake assessed as yohimbine induced mortality in mouse at 3.24 mM/kg, ip after 24 hrs; parameters: scale not given: the % may be the effect or the level left
[12] = tested on: Mus musculus; assay: Inhibition of SERT-mediated serotonin-reuptake assessed as 5-hydroxytryptophan induced mouse head twitch at 4.86 mM/kg, ip after 20 mins; parameters: scale not given: the % may be the effect or the level left
[13] = tested on: Mus musculus; assay: Inhibition of SERT-mediated serotonin-reuptake assessed as 5-hydroxytryptophan induced mouse head twitch at 1.62 mM/kg, ip after 20 mins; parameters: scale not given: the % may be the effect or the level left
[14] = tested on: Mus musculus; assay: Inhibition of NET-mediated norepinephrine-reuptake assessed as yohimbine induced mortality in mouse at 9.71 mM/kg, ip after 24 hrs; parameters: scale not given: the % may be the effect or the level left

Row | Structure (SMILES) | Activity [1] | ED50 [2] | Ratio ED50 [3] | Activity [4] | ED50 [5] | Activity [6] | Activity [7] | Activity [8] | Activity [9] | Activity [10] | Activity [11] | Activity [12] | Activity [13] | Activity [14]
1 | CN1C2CCC1CC(Oc1ccc(C(F)(F)F)cc1)(c1ccccc1)C2 (stereo not drawn) | 0% | 11300 µmol/kg | 0.29 | 66.67% | 3.3 µmol/kg | 66.67% | 66.67% | 100% | 50% | 83.33% |  |  |  | 
2 | CN1C2CCC1CC(Oc1ccc(Br)cc1)(c1ccccc1)C2 (stereo not drawn) | 16.67% | 11400 µmol/kg | 0.56 | 50% |  | 50% |  | 100% | 33.33% | 66.67% |  |  |  | 
3 | CNCCC(Oc1ccc(C(F)(F)F)cc1)c1ccccc1 (stereo not drawn) [FLUOXETINE] | 0% | > 12900 µmol/kg | <0.39 | 0% | 5.09 µmol/kg | 50% |  |  | 16.67% | 100% | 0% |  |  | 
4 | CN1C2CCC1CC(Oc1cccc(C(F)(F)F)c1)(c1ccccc1)C2 (stereo not drawn) | 16.67% | 53100 µmol/kg | 0.1 | 33.33% | 5.46 µmol/kg | 50% | Toxic | Toxic | 33.33% | 83.33% | 0% |  |  | 
5 | CN1C2CCC1CC(Oc1ccc(C#N)cc1)(c1ccc(F)cc1)C2 (stereo not drawn) | 66.67% | 5020 µmol/kg | 0.59 | 100% | 2.94 µmol/kg | Toxic |  |  | 50% |  | 16.67% | 66.67% | 33.33% | 
6 | CN(C)CCCN1c2ccccc2CCc2ccc(Cl)cc21 [CLOMIPRAMINE] |  | 5780 µmol/kg | 0.35 |  | 2 µmol/kg | 83.3% |  |  | 50% |  | 16.67% |  | 50% | 66.67%
7 | CN1C2CCC1CC(Oc1ccc(Cl)cc1)(c1ccccc1)C2 (stereo not drawn) | 33.33% | 16100 µmol/kg | 0.29 | 33.33% | 4.72 µmol/kg | 66.67% |  | 66.67% | 33.33% | 83.33% |  |  |  | 
8 | CN1C2CCC1CC(Oc1ccc([N+](=O)[O-])cc1)(c1ccccc1)C2 (stereo not drawn) | 50% | 10300 µmol/kg | 0.29 | 50% | 2.94 µmol/kg | Toxic |  | Toxic | 50% |  | 0% | 66.67% | 33.33% | 
9 | CN1C2CCC1CC(Oc1ccc(C#N)cc1)(c1ccccc1)C2 (stereo not drawn) | 50% | 4080 µmol/kg | 1.08 | 83.33% | 4.44 µmol/kg | 66.67% |  |  | 33.33% |  | 50% |  | 16.67% | 
10 | CN(C)CCCC1(c2ccc(F)cc2)OCc2cc(C#N)ccc21 (stereo not drawn) [CITALOPRAM] | 0% | 13700 µmol/kg | 0.12 | 16.67% | 1.58 µmol/kg | 100% |  |  | 83.33% |  |  |  | 50% | 
